ChEMBL document CHEMBL1201862, “PubChem BioAssay data set” (2004)
The source made the active and inactive calls. No stated cut-off is given here; in the data, actives have a measured IC50 and inactives only a lower limit.

Molecular target: Envelope glycoprotein gp160 (Human immunodeficiency virus 1, UniProt Q6QLK5)
Test: inhibitors of HIV fusion peptide binding, primary screen, biochemical, uHTS, fluorescence dequenching (AID 1986)

Sequence of Envelope glycoprotein gp160 (Q6QLK5 whole entry, the tested form may be a part): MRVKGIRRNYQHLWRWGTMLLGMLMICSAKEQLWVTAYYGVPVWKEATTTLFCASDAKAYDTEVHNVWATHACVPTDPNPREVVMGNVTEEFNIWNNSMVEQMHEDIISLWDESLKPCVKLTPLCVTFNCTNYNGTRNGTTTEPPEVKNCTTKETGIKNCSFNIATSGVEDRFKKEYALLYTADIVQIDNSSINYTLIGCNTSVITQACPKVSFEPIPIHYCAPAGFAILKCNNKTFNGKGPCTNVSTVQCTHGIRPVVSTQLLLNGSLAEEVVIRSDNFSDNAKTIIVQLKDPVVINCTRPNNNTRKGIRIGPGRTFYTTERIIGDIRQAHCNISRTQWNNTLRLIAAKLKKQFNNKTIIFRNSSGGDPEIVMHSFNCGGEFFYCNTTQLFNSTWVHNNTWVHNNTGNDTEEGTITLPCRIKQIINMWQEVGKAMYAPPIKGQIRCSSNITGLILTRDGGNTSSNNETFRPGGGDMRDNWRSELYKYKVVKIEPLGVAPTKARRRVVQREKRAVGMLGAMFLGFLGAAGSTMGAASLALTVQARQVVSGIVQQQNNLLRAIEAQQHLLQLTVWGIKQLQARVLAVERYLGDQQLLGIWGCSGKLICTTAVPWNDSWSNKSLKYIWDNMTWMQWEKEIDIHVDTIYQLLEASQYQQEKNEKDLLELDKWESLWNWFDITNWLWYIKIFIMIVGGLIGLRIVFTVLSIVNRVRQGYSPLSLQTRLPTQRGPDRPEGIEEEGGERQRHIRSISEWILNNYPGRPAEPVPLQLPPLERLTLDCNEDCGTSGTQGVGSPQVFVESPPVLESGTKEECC

Question: With O=C1Nc2ccc(Br)cc2/C1=C1/SC(=S)N(NS(=O)(=O)c2ccccc2)C1=O as the compound, how does the IC50 read?
Answer: 23.9 µM (active)
